Results from patent US11912742B2, “Heterologous production of leupeptin protease inhibitors and analogs thereof” (YALE UNIVERSITY, priority 2020, dated 2024).
Where a SMILES comes first, the peptide text is derived from it.

Experiments:
[1] = test system: trypsin-like proteases; details: cited from earlier work
[2] = test system: Plu4509; test: In vitro enzyme assay of purified Plu4509 with leupeptin as substrate; assay type: biochemical, P. luminescens; details: His6x-tagged Plu4509; end point analysis; 1 h, 35° C.
[3] = cited from earlier work
[4] = Spontaneous conversion of pro-pyrazinones under aerobic conditions; assay type: physicochemical
[5] = test system: calpain protease; details: cited from earlier work
[6] = test system: chymotrypsin-type proteases; details: previously synthesized molecules; cited from earlier work

Row | Structure (SMILES) | stability under aerobic conditions (conversion to pyrazinone) [4] | inhibition of chymotrypsin-type proteases [6] | further results
1 | CC(=O)N[C@@H](CC(C)C)C(=O)N[C@@H](CC(C)C)C(=O)N[C@H](C=O)CCCNC(=N)N [leupeptin A, N-Acetyl-L-leucyl-L-leucyl-L-argininal] | – | – | inhibition of trypsin-like proteases [1]: inhibits trypsin-like proteases; cleavage by Plu4509: production of metabolites 10 and 11 from the substrate [2]: significantly enhanced production of 10 and 11; toxicity in humans [3]: very low toxicity
2 | CC(C)C[C@@H]1N[C@@H]2N=C(N)N3CCC[C@@]23NC1=O [compound 9] | spontaneously converted to their pyrazinone counterpart 11 | – | –
3 | CC(C)C[C@@H]1N[C@@H]2N=C(N)N3CCC[C@]23NC1=O [compound 10] | spontaneously converted to their pyrazinone counterpart 11 | – | –
4 | CC(C)Cc1ncc(Cc2ccc(O)cc2)[nH]c1=O [lumizinone A] | – | – | calpain protease inhibition [5]: calpain protease inhibitor
5 | CC(=O)NC(CC(C)C)C(=O)NC(CC(C)C)C(=O)NC(C=O)Cc1ccccc1 (stereo not drawn) [leupeptin C] (Ac-Leu-Leu-Phe-aldehyde; configuration not given here) | – | confirmed to inhibit chymotrypsin-type proteases | –
6 | CC(=O)N[C@@H](CC(C)C)C(=O)N[C@@H](CC(C)C)C(=O)N[C@H](C=O)Cc1ccc(O)cc1 [leupeptin B] (Ac-Leu-Leu-Tyr-aldehyde) | – | confirmed to inhibit chymotrypsin-type proteases | –
